Source: US8461339B2, “Pharmaceutical compounds” (Sentinel Oncology Limited, priority 2008, dated 2013)

Experiments:
Flt4 (h) = target: T1, Flt4 (h) (Homo sapiens, UniProt P35916); experiment: Kinase inhibition assay, Flt4 (h) (Millipore, 33P-ATP filter assay); format: biochemical
T1 construct: purchased Millipore
Method: (§1) Compounds of the invention can be screened for activity against a range of protein kinases using the assays set out below. Kinase inhibition assays were carried out by Millipore, Dundee Technology Park, Dundee, UK.
(§2) In a final reaction volume of 25 μL, Flt4 (h) (5-10 mU) is incubated with 8 mM MOPS pH 7.0, 0.2 mM EDTA, 500 μM GGEEEEYFELVKKKK, 10 mM MgAcetate and [[…]-33P-ATP] (specific activity approx. 500 cpm/pmol, concentration as required). The reaction is initiated by the addition of the MgATP mix. After incubation for 40 minutes at room temperature, the reaction is stopped by the addition of 5 μL of a 3% phosphoric acid solution. 10 μL of the reaction is then spotted onto a P30 filtermat and washed three times for 5 minutes in 75 mM phosphoric acid and once in methanol prior to drying and scintillation counting.

Flt3 (h) = target: T2, Flt3 (h) (Homo sapiens, UniProt P36888); experiment: Kinase inhibition assay, Flt3 (h) (Millipore, 33P-ATP filter assay); format: biochemical
T2 construct: purchased Millipore
T2 sequence (P36888 27-993): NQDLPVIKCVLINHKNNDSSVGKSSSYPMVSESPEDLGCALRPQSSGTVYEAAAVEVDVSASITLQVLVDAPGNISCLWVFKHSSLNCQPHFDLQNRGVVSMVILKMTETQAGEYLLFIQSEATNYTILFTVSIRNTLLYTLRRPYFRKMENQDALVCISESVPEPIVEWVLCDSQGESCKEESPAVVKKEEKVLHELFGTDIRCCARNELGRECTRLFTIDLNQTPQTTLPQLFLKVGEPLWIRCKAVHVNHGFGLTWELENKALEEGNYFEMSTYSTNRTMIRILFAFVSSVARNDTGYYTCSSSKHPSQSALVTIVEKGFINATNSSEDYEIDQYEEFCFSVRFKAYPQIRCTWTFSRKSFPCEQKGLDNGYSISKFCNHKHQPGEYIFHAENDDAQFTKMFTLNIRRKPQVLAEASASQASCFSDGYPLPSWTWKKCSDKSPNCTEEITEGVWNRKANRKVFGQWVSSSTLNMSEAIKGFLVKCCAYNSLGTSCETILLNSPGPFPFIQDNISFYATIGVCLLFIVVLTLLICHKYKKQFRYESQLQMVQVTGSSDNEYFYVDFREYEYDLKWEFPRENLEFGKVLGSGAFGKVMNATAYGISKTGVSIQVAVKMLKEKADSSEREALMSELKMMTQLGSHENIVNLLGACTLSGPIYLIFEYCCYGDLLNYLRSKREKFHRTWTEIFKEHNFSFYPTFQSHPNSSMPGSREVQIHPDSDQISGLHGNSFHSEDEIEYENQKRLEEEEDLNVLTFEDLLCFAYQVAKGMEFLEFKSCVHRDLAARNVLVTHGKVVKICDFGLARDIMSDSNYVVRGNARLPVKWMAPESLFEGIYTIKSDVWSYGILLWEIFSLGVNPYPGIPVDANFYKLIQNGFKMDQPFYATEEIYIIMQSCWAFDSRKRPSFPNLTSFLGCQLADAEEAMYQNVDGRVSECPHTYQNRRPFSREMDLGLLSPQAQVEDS
Method: as §1
as §2, with “μL, Flt3” for “μL, Flt4”, “EDTA, 50” for “EDTA, 500”, “μM EAIYAAPFAKKK,” for “μM GGEEEEYFELVKKKK,”

[1] = tested on: human HT29 colon carcinoma cells; experiment: HT29 colony forming assay; format: cell-based; conditions: HT-29, 240 h, 10 days incubation, colonies counted
Method: The ability of compounds of the invention to prevent growth of discrete colonies of human HT29 colon carcinoma cells over a 10 day time course can be measured using the following protocol: • 1. HT29 cells (ECACC No. 91072201) are seeded in 24-well plates at a concentration of 75 cells per well and allowed to adhere overnight prior to addition of compound or vehicle control. • 2. Test compounds are prepared from 10 mM DMSO stocks to give a final concentration range of 10 μM, 3 μM, 1 μM, 0.3 μM, 0.1 μM, 0.03 μM, 0.01 μM and vehicle control. The DMSO content is constant at 0.1%. • 3. Test compounds are incubated with the cells for 10 days at 37° C. 5% CO2 in a humidified atmosphere. • 4. Colonies are fixed using Carnoy's Fixative (75% methanol, 25% acetic acid) for 5 minutes, and allowed to air dry. • 5. Colonies are stained using 0.4% (w/v) crystal violet for 2 minutes. • 6. Colonies (containing more than 50 cells) are counted by eye and data analysed using a 4-parameter logistic equation in GraphPad Prism.

KDR (h) = target: T3, KDR (h) (Homo sapiens, UniProt P35968); experiment: Kinase inhibition assay, KDR (h) (Millipore, 33P-ATP filter assay); format: biochemical; conditions: read-out: IC50 against KDR kinase
T3 construct: purchased Millipore
Method: as §1
as §2, with “KDR” for “Flt4”, “0.33 mg/mL myelin basic protein,” for “500 μM GGEEEEYFELVKKKK,”, “Mg Acetate” for “MgAcetate”, “[γ-33P-ATP]” for “[[…]-33P-ATP]”

Yes (h) = target: T4, Yes (h) (Homo sapiens, UniProt P07947); experiment: Kinase inhibition assay, Yes (h) (Millipore, 33P-ATP filter assay); format: biochemical; conditions: read-out: IC50 against Yes kinase
T4 construct: purchased Millipore
Method: as §1
as §2, with “μl, Yes” for “μL, Flt4”, “0.1 mg/ml poly(Glu, Tyr) 4:1,” for “500 μM GGEEEEYFELVKKKK,”, “[γ-33P-ATP]” for “[[…]-33P-ATP]”, “μl” for “μL”, “Filtermat A” for “P30 filtermat”

HCT116 cells = experiment: Anti-proliferative activity, Alamar Blue assay; format: cell-based; conditions: Homo sapiens, HCT-116, 72 h incubation, read-out: cell proliferation IC50
Method: The anti-proliferative activities of compounds of the invention are determined by measuring the ability of the compounds to inhibition of cell growth in a number of cell lines. Inhibition of cell growth is measured using the Alamar Blue assay
The following protocol was used: • 1) HT29, HCT116 or Colo205 cells were seeded at an appropriate density and allowed to adhere overnight. • 2) Test compounds were prepared from 10 mM DMSO stocks to give a final concentration range as shown on the graphs. DMSO was constant throughout each experiment. • 3) Test compounds were incubated with the cells for 72 h at 37° C. 5% CO2 in a humidified atmosphere. • 4) Alamar blue 10% (v/v) was then added and incubated for a further 6 h, and fluorescent product detected using the BMG FLUOstar plate reader. • 5) Data was analysed using a 4-parameter logistic equation in Graph Pad Prism.

T1 sequence (P35916 25-1363): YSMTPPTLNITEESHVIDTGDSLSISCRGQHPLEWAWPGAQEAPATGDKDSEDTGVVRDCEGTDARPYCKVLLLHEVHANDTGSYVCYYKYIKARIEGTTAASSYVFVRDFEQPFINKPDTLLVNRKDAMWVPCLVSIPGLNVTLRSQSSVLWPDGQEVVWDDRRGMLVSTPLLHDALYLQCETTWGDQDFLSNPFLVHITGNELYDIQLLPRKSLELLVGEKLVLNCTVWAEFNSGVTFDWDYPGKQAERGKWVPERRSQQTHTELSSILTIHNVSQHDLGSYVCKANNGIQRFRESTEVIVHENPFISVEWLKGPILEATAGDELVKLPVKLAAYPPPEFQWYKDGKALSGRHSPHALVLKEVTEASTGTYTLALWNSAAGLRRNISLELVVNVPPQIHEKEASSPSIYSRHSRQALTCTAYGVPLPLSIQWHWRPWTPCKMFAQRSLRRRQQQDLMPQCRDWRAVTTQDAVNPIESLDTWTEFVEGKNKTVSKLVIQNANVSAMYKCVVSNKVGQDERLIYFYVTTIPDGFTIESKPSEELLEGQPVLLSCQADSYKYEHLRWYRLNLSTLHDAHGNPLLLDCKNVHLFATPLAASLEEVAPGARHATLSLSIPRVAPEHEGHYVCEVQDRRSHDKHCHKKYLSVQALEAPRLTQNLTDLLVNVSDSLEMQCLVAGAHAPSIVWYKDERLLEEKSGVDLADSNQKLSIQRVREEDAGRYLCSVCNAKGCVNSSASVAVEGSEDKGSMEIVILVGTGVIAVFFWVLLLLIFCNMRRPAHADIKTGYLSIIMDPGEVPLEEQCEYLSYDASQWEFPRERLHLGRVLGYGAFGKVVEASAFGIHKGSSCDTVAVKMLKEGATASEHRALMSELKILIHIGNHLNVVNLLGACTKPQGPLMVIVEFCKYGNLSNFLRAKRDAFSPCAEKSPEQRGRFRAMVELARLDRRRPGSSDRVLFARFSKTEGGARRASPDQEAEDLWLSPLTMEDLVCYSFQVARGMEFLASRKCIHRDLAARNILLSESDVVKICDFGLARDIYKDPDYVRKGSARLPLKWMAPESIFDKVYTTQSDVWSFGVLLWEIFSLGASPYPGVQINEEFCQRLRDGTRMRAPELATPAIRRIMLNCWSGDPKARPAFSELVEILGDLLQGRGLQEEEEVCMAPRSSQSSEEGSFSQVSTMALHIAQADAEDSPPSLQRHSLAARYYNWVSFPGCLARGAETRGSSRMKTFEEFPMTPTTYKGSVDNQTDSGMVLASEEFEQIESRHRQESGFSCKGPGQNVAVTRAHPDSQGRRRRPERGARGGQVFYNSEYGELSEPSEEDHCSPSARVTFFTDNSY
T3 sequence (P35968 20-1356): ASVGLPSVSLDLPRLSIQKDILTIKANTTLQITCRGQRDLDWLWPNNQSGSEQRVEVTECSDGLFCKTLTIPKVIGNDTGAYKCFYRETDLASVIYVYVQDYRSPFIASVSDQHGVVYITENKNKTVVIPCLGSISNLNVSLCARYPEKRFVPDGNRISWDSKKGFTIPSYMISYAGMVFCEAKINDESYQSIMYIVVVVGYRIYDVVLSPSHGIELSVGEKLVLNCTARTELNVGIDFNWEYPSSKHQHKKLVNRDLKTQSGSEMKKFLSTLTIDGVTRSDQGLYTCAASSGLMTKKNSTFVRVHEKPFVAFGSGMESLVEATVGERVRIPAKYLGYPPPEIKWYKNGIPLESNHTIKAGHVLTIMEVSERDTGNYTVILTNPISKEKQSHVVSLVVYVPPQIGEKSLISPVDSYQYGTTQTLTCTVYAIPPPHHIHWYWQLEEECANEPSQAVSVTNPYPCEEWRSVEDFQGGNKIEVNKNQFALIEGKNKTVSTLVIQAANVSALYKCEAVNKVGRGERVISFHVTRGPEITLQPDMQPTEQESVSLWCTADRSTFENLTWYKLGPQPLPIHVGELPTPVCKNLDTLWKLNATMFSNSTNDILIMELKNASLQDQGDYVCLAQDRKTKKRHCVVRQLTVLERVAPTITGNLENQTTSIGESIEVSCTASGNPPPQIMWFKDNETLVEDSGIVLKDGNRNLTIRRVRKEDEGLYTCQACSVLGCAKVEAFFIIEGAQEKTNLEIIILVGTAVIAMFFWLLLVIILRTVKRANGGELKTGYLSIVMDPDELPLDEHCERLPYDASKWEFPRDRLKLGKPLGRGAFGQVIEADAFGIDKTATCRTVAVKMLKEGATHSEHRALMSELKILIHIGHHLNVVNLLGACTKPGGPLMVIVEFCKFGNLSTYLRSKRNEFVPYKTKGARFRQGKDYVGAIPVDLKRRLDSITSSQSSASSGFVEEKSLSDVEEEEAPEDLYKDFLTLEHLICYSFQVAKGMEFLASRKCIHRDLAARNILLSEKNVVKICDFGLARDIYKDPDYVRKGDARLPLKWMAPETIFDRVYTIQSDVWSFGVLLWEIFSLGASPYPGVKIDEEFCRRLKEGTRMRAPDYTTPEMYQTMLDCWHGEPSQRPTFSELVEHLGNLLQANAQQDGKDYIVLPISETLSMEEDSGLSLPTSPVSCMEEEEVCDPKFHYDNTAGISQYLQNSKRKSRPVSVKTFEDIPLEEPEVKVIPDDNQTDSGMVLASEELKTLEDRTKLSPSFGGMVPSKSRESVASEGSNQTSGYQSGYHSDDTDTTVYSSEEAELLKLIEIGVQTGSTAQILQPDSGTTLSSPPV
T4 sequence (P07947 whole entry): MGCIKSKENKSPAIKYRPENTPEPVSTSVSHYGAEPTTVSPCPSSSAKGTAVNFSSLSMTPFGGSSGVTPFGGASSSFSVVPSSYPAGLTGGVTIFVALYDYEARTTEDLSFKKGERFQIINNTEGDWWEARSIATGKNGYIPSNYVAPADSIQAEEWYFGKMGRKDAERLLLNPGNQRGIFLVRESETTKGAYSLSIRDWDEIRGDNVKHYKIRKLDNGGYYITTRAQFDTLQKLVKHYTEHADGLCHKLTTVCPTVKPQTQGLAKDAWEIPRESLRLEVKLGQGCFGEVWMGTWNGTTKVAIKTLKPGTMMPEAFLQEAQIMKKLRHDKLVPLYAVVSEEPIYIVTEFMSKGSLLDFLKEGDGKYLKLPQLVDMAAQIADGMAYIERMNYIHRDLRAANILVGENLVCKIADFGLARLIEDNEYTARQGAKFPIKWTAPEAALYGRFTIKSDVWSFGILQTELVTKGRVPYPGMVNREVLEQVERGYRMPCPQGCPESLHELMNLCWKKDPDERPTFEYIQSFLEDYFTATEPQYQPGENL

| Compound | IC50 (Flt4 (h)) | IC50 (Flt3 (h)) | IC50 [1] | IC50 (KDR (h)) | IC50 (Yes (h)) | IC50 (HCT116 cells) |
| --- | --- | --- | --- | --- | --- | --- |
| O=C(CO)N1CCN(Cc2ccnc(Nc3cc4ccccc4cn3)c2)CC1 [Example 23B, 2-Hydroxy-1-{4-[2-(isoquinolin-3-ylamino)-pyridin-4-ylmethyl]-piperazin-1-yl}-ethanone] | < 100 nM | < 100 nM |  |  |  |  |
| CNC(=O)N1CCN(Cc2ccnc(Nc3cc4ccccc4cn3)c2)CC1 [Example 19, 4-[2-(Isoquinolin-3-ylamino)-pyridin-4-ylmethyl]-piperazine-1-carboxylic acid methylamide] | < 100 nM | < 100 nM |  |  |  |  |
| c1ccc2cc(Nc3cc(CN4CCCC4)ccn3)ncc2c1 [Example 1, Isoquinolin-3-yl-(4-pyrrolidin-1-ylmethyl-pyridin-2-yl)-amine] | < 500 nM | < 100 nM | 1380 nM | < 5000 nM | < 5000 nM | < 25000 nM |
| Fc1ccc2cc(Nc3cc(CN4CCCC4)ccn3)ncc2c1 [Example 18, 7-Fluoroisoquinolin-3-yl-(4-pyrrolidin-1-ylmethyl-pyridin-2-yl)-amine] | < 100 nM | < 100 nM |  |  |  |  |
| CN(C)C(=O)N1CCN(Cc2ccnc(Nc3cc4ccccc4cn3)c2)CC1 [Example 20, 4-[2-(Isoquinolin-3-ylamino)-pyridin-4-ylmethyl]-piperazine-1-carboxylic acid dimethylamide] | < 100 nM | < 100 nM |  |  |  |  |
| NC(=O)N1CCN(Cc2ccnc(Nc3cc4ccccc4cn3)c2)CC1 [Example 21C, 4-[2-(Isoquinolin-3-ylamino)-pyridin-4-ylmethyl]-piperazine-1-carboxylic acid amide] | < 500 nM | < 100 nM |  |  |  |  |
| CC(=O)N1CCN(Cc2ccnc(Nc3cc4ccccc4cn3)c2)CC1 [Example 22, 1-[4-[2-(Isoquinolin-3-ylamino)-pyridin-4-ylmethyl]-piperazin-1-yl]-ethanone] | < 500 nM | < 100 nM |  |  |  |  |
| Clc1ccc2cc(Nc3cc(CN4CCCC4)ccn3)ncc2c1 [Example 14, 7-Chloroisoquinolin-3-yl-(4-pyrrolidin-1-ylmethyl-pyridin-2-yl)-amine] | > 100 nM | < 100 nM |  |  |  |  |
| COc1ccc2cnc(Nc3cc(CN4CCCC4)ccn3)cc2c1 [Example 17, (6-Methoxy-isoquinolin-3-yl)-(4-pyrrolidin-1-ylmethyl-pyridin-2-yl)-amine] | < 100 nM | < 100 nM |  |  |  |  |
| c1ccc2cc(Nc3cc(CN4CCNCC4)ccn3)ncc2c1 [Example 21B, Isoquinolin-3-yl-(4-piperazin-1-ylmethyl-pyridin-2-yl)-amine] | < 500 nM | < 5000 nM |  |  |  |  |
